This note sets out measurements from article PMC6018617, “Probing GABAA receptors with inhibitory neurosteroids” (Neuropharmacology, 2018).

One assay concerns the target T1, α1β2 (Mus musculus, UniProt P62812+P63137).
T1 construct: gene Gabra1; full-length subunits in pRK5, co-expressed in HEK cells; heteropentamer without gamma
Kind of assay: whole-cell patch clamp, HEK cells. The assay is classed as cell-based. Conditions: read-out: PS IC50. The text has this: whole-cell patch clamp, HEK cells on α1β2
Background: In patch-clamp work, channel activity is measured electrically.

Assay [1] addresses T2, α1β2γ2L (Mus musculus, UniProt P22723+P62812+P63137).
T2 construct: gene Gabra1; full-length subunits in pRK5, co-expressed 1:1:1 in HEK cells; heteropentamer; with Gamma-aminobutyric acid receptor subunit gamma-2
Briefly: whole-cell patch clamp, HEK cells. Type of assay: cell-based. Conditions: read-out: PS IC50. An excerpt: whole-cell patch clamp, HEK cells on α1β2γ2L

The target in a further assay is T3, α4β2δ (Mus musculus, UniProt P22933+P63137+Q9D6F4).
T3 construct: gene Gabra4; full-length subunits in pRK5, co-expressed in HEK cells; heteropentamer; with Gamma-aminobutyric acid receptor subunit delta
Briefly: whole-cell patch clamp, HEK cells. The assay is classed as cell-based. Conditions: read-out: PS IC50. The text has this: whole-cell patch clamp, HEK cells on α4β2δ

For assay [2], the target named is T4, α3β2γ2L (Mus musculus, UniProt P22723+P26049+P63137).
T4 construct: gene Gabra3; full-length subunits in pRK5, co-expressed in HEK cells; heteropentamer; with Gamma-aminobutyric acid receptor subunit gamma-2
T4 sequence (P26049 29-492): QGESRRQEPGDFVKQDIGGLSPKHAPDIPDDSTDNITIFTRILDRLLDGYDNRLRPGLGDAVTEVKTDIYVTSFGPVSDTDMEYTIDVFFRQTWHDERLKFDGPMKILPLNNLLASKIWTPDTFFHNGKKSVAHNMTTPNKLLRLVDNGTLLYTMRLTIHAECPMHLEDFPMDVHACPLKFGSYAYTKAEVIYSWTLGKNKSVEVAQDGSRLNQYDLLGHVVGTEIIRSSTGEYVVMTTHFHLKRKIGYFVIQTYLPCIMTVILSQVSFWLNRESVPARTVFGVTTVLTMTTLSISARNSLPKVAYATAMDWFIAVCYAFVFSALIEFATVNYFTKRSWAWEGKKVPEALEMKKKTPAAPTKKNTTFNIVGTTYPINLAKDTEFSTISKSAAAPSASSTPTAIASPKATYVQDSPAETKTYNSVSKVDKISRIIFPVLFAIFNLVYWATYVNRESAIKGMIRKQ
T4 sequence (P63137 26-512): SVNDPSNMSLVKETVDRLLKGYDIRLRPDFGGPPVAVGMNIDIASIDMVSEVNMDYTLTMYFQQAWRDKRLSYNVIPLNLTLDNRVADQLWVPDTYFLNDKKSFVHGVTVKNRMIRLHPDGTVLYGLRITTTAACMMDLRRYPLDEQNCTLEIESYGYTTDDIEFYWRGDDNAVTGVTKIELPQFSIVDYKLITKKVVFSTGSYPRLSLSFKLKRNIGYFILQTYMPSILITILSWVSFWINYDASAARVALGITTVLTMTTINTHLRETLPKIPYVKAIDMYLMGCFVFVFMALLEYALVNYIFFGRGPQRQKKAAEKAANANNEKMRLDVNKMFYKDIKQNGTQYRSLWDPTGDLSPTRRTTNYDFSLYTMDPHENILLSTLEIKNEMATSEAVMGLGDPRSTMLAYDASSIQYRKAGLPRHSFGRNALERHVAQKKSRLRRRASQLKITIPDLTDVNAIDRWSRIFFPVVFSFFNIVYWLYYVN
T4 sequence (P22723 39-474): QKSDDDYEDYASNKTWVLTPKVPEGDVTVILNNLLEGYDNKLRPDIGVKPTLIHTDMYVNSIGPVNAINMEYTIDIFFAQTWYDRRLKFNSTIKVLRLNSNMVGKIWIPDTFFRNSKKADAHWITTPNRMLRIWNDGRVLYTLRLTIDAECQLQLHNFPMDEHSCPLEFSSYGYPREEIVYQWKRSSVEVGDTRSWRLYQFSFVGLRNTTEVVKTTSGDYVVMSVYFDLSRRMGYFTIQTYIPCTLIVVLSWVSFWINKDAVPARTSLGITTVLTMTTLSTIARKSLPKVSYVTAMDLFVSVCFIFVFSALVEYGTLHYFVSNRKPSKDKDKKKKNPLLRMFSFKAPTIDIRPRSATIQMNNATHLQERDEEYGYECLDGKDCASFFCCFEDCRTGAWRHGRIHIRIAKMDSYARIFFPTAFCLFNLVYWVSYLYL
Briefly: whole-cell patch clamp, HEK cells. The assay is classed as cell-based. Conditions: read-out: PS IC50. The text has this: whole-cell patch clamp, HEK cells on α3β2γ2L

Assay [3] addresses T5, α6β2δ (Mus musculus, UniProt P16305+P22933+P63137).
T5 construct: gene Gabra6; full-length subunits in pRK5, co-expressed in HEK cells; heteropentamer; with Gamma-aminobutyric acid receptor subunit delta
Briefly: whole-cell patch clamp, HEK cells. As to conditions: read-out: PS IC50. Type of assay: cell-based. An excerpt:
whole-cell patch clamp, HEK cells on α6β2δ

Another assay deals with T6, β3 homomer (Mus musculus, UniProt P63080).
T6 construct: gene Gabrb3; full-length subunit in pRK5, HEK cells; homopentamer
T6 sequence (P63080 26-473): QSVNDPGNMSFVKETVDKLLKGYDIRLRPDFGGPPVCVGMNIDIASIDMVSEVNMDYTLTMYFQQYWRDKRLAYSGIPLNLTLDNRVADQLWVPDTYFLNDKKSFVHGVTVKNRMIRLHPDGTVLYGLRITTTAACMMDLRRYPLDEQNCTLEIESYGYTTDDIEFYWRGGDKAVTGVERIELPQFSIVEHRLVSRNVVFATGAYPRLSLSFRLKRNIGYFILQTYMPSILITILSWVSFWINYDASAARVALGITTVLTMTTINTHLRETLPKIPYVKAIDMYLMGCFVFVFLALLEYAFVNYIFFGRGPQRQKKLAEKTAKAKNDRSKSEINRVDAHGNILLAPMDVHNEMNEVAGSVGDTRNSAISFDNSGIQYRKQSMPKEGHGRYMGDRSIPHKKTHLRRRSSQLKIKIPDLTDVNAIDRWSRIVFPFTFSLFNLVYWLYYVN
Kind of assay: whole-cell patch clamp, HEK cells. Type of assay: cell-based. As to conditions: 100 μM PS co-applied with 500 μM pentobarbitone.

The target in assay [4] is T7, α1β2γ2L (Mus musculus, UniProt P22723+P62812+P63137, P62812:V283S).
T7 construct: gene Gabra1; full-length subunits in pRK5, co-expressed 1:1:1 in HEK cells; heteropentamer; with Gamma-aminobutyric acid receptor subunit gamma-2
T7 sequence (P62812 28-455 V283S): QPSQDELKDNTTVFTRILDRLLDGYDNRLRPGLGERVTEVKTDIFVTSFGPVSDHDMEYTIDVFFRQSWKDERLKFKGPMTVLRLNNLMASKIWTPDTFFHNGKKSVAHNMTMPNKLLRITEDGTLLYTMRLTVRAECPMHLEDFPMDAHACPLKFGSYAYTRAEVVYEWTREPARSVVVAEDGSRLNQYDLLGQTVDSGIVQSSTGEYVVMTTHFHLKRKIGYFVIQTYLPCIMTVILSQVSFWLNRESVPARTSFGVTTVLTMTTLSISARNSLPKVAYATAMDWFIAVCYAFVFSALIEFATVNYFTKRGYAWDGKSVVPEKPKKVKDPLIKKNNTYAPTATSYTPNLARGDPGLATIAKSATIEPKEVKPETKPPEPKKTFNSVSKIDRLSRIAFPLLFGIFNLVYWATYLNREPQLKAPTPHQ
T7 sequence (P63137 26-512): as the sequence (P63137 26-512) above
T7 sequence (P22723 39-474): as the sequence (P22723 39-474) above
Briefly: whole-cell patch clamp, HEK cells. The assay is classed as cell-based.

The target in assay [5] is T8, ρ1 (Homo sapiens, UniProt P24046, P315V).
T8 construct: gene GABRR1; full-length subunit in pRK5, HEK cells; homopentamer
T8 sequence (P24046 22-479 P315V): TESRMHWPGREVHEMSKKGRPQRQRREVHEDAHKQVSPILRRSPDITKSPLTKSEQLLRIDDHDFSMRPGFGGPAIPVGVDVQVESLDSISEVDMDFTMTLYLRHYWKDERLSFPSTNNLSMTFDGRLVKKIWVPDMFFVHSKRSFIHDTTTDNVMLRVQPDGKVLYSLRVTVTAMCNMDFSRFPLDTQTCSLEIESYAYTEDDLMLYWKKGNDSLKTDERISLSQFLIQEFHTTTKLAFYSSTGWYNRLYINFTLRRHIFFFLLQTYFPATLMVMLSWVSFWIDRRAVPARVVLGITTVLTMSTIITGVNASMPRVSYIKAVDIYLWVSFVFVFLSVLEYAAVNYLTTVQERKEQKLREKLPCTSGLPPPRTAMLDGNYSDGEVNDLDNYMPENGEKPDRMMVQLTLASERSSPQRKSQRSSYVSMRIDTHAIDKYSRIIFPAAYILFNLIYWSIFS
Briefly: whole-cell patch clamp, HEK cells. The assay is classed as cell-based.

The next assay has as its system T9, ρ1-260-γ2S.
T9 construct: gene GABRR1; single-chain fusion: human rho1 ECD to residue 260, mouse gamma2S TMD; homopentamer in HEK cells
Kind of assay: whole-cell patch clamp, HEK cells. Conditions: co-applied with GABA EC80 (200 μM). The assay is classed as cell-based, Homo sapiens; Mus musculus.

The target in assay [6] is T10, ρ1 (Homo sapiens, UniProt P24046).
T10 construct: gene GABRR1; full-length subunit in pRK5, HEK cells; homopentamer
T10 sequence (P24046 22-479): as the sequence (P24046 22-479 P315V) above, with V294P counted along it
Kind of assay: whole-cell patch clamp, HEK cells. Type of assay: cell-based. As to conditions: read-out: PS IC50. The text has this:
whole-cell patch clamp, HEK cells on ρ1

The next assay deals with T11, α2β2γ2L (Mus musculus, UniProt P22723+P26048+P63137).
T11 construct: gene Gabra2; full-length subunits in pRK5, co-expressed in HEK cells; heteropentamer; with Gamma-aminobutyric acid receptor subunit gamma-2
T11 sequence (P26048 29-451): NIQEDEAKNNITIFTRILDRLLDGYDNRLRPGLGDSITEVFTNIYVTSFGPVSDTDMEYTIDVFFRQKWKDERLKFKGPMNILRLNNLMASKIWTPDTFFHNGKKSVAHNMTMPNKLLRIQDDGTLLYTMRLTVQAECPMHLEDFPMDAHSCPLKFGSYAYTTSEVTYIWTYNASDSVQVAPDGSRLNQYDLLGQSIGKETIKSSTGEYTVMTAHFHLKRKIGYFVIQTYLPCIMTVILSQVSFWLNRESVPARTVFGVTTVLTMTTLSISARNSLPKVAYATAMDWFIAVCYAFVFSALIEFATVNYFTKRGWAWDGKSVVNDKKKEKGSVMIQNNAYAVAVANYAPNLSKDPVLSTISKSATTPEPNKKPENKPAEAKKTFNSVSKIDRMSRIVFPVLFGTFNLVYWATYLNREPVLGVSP
T11 sequence (P63137 26-512): as the sequence (P63137 26-512) above
T11 sequence (P22723 39-474): as the sequence (P22723 39-474) above
Kind of assay: whole-cell patch clamp, HEK cells. The assay is classed as cell-based. As to conditions: read-out: PS IC50. An excerpt:
whole-cell patch clamp, HEK cells on α2β2γ2L

The target in another assay is T12, α5β2γ2L (Mus musculus, UniProt P22723+P63137+Q8BHJ7).
T12 construct: gene Gabra5; full-length subunits in pRK5, co-expressed in HEK cells; heteropentamer; with Gamma-aminobutyric acid receptor subunit gamma-2
T12 sequence (Q8BHJ7 26-463): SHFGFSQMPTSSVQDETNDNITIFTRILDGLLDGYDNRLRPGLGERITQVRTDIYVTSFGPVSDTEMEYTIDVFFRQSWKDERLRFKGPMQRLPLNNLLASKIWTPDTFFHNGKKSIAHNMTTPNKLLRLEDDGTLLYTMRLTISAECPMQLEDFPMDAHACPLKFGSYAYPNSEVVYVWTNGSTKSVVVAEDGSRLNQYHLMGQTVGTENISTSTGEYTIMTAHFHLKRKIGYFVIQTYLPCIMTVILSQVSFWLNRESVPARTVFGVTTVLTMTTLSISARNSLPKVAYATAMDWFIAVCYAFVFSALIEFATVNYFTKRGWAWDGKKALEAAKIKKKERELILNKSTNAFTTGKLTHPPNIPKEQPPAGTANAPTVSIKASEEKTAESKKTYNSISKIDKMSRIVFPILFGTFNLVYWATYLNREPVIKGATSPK
T12 sequence (P63137 26-512): as the sequence (P63137 26-512) above
T12 sequence (P22723 39-474): as the sequence (P22723 39-474) above
Kind of assay: whole-cell patch clamp, HEK cells. Type of assay: cell-based. As to conditions: read-out: PS IC50. The text has this: whole-cell patch clamp, HEK cells on α5β2γ2L

The target in a further assay is T13, α1β3γ2L (Mus musculus, UniProt P22723+P62812+P63080).
T13 construct: gene Gabra1; full-length subunits in pRK5, co-expressed in HEK cells; heteropentamer; with Gamma-aminobutyric acid receptor subunit gamma-2
Kind of assay: whole-cell patch clamp, HEK cells. Type of assay: cell-based. Conditions: read-out: PS IC50. The text has this: whole-cell patch clamp, HEK cells on α1β3γ2L

Another assay relates to T14, ρ1-260-α1.
T14 construct: gene GABRR1; single-chain fusion: human rho1 ECD to residue 260 (start of M1), mouse alpha1 TMD with linkers; homopentamer in HEK cells
Briefly: whole-cell patch clamp, HEK cells. Type of assay: cell-based, Homo sapiens; Mus musculus. Conditions: steady-state current, co-applied with GABA EC80 (30 μM), pH 7.4, room temperature.

The target in assay [7] is T4, α3β2γ2L. Kind of assay: whole-cell patch clamp, HEK cells, Hill fit. The assay is classed as cell-based. An excerpt:
whole-cell patch clamp, HEK cells, Hill fit on α3β2γ2L

Assay [8] addresses T5, α6β2δ. Kind of assay: whole-cell patch clamp, HEK cells, Hill fit. Type of assay: cell-based. The text has this: whole-cell patch clamp, HEK cells, Hill fit on α6β2δ
Assay [9] concerns the target T2, α1β2γ2L. Briefly: whole-cell patch clamp, HEK cells. Conditions: GABA EC100 (1 mM), PTX pre-applied then co-applied; text calls it picrotoxin, reagent list picrotoxinin. The assay is classed as cell-based.

T2 sequence (P62812 28-455): as the sequence (P62812 28-455 V283S) above, with S256V counted along it
T2 sequence (P63137 26-512): as the sequence (P63137 26-512) above
T2 sequence (P22723 39-474): as the sequence (P22723 39-474) above
T5 sequence (P16305 20-453): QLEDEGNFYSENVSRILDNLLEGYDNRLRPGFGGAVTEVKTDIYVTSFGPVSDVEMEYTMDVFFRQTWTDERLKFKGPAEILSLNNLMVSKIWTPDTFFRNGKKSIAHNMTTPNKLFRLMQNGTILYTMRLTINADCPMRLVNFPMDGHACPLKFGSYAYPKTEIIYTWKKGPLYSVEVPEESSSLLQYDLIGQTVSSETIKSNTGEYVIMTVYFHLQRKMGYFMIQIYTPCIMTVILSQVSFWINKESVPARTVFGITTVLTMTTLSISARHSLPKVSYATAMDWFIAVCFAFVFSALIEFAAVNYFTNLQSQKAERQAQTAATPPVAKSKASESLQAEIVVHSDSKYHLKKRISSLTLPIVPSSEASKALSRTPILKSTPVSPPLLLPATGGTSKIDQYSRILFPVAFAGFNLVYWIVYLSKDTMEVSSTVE
T5 sequence (P63137 26-512): as the sequence (P63137 26-512) above
T5 sequence (P22933 25-449): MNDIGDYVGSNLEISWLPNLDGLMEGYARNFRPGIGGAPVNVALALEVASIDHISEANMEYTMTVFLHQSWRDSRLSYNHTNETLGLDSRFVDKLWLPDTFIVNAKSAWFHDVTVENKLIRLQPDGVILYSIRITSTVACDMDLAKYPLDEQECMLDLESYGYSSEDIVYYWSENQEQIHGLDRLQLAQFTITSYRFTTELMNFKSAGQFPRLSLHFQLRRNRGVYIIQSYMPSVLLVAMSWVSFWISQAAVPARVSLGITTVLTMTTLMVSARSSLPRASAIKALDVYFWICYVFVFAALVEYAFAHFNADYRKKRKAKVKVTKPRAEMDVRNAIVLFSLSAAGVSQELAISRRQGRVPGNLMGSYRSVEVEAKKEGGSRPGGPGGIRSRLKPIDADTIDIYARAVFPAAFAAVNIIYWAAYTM

Take `CC(=O)[C@H]1CC[C@H]2[C@@H]3CC=C4C[C@@H](OS(=O)(=O)O)CC[C@]4(C)[C@H]3CC[C@]12C` [pregnenolone sulphate]: the IC50 (in general, the concentration that gives 50% inhibition) at α1β2 turned out to be 1.3 ± 0.07 µM; on α1β2γ2L [1], 0.4 ± 0.05 µM; on α4β2δ, 1.3 ± 0.1 µM; on α3β2γ2L [2], 0.6 ± 0.05 µM; on α6β2δ [3], 1.3 ± 0.1 µM; against α1β2γ2L [4] it was 35.5 ± 8.2 µM. The IC50 at ρ1 [5] was 6 ± 0.6 µM; at ρ1 [6] it was > 300 µM; on α2β2γ2L it was 0.4 ± 0.05 µM; on α5β2γ2L, 0.7 ± 0.1 µM; on α1β3γ2L, 1 ± 0.08 µM; in the assay with ρ1-260-α1 it was 7.9 ± 1.7 µM. The “whole-cell patch clamp, HEK cells” value on β3 homomer was “neurosteroid caused a concentration-dependent block of the PB-induced peak current”. In the assay on ρ1-260-γ2S, the “% of control peak current at 100 μM PS” value worked out at 39.2 ± 5.1%.
On to `NCCCC(=O)O` [GABA], for which the EC50 (in general, the concentration needed to bring the measured effect to its halfway point) on α3β2γ2L [7] came to 64.6 ± 14.3 µM; on α6β2δ [8], 0.2 ± 0.02 µM.
As to picrotoxinin, the “% of control peak current at 10 μM PTX” value on α1β2γ2L [9] was 37.3 ± 8.1%.
